Data taken from patent publication US11572398B2, “GLP-1 derivatives and uses thereof” (Novo Nordisk A/S, priority 2014, dated 2023).
pEC50, pIC50: −log10 of the molar value. Read-outs that look alike come from different tables or passages of the source. Non-standard residues stand in square brackets, D forms with d. Residues, ends and D or L forms follow the SMILES beside them. Groups on a side chain read outwards from the residue. *: point of attachment. X2 = O=C(O)CCCCCCCCCCCCCCCCCCC(=O)NC[C@H]1CC[C@H](C(=O)N[C@@H](CCC(=O)NCCCN(CCCNC(=O)CC[C@H](NC(=O)[C@H]2CC[C@H](CNC(=O)CCCCCCCCCCCCCCCCCCC(=O)O)CC2)C(=O)O)CC(=O)*)C(=O)O)CC1; AEEA = NCCOCCOCC(=O)O; Aib = CC(C)(N)C(=O)O

Experiments:
[1] = target: T1, human GLP-1 receptor (Homo sapiens, UniProt P43220); experiment: In vitro potency: CRE luciferase reporter gene assay in BHK cells expressing the human GLP-1 receptor; format: cell-based; settings: whole cell reporter gene assay, BHK cells, human GLP-1 receptor; average of at least two replicates; read-out: EC50
T1 construct: expressed in transfected cells; host or cells: BHK cells (parent line BHKTS13), clone FCW467-12A; membrane preparation
T1 sequence (P43220 24-463): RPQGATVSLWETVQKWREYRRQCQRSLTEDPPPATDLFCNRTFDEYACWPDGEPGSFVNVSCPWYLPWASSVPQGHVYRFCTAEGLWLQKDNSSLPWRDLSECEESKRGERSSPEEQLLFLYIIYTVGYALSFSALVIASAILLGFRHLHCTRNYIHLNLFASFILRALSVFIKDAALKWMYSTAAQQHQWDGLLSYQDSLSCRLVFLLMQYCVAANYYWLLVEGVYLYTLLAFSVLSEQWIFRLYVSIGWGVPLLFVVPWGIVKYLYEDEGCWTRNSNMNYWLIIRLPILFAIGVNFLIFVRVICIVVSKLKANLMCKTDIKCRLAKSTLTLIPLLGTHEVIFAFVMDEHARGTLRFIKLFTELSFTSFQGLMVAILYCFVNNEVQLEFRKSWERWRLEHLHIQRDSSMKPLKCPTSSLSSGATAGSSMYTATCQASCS
Procedure: The purpose of this example is to test the activity, or potency, of the GLP-1 derivatives in vitro. The in vitro potency is the measure of human GLP-1 receptor activation in a whole cell assay.
In vitro potency was determined by measuring the response of the human GLP-1 receptor in a reporter gene assay. The assay was performed in a stably transfected BHK cell line that expresses the human GLP-1 receptor and contains the DNA for the cAMP response element (CRE) coupled to a promoter and the gene for firefly luciferase (CRE luciferase). When the human GLP-1 receptor is activated it results in the production of cAMP, which in turn results in the luciferase protein being expressed. When assay incubation is completed the luciferase substrate (luciferin) is added and the enzyme converts luciferin to oxyluciferin to produce bioluminescence. The luminescence is measured as the readout for the assay.
The cells were cultured at 5% CO2 in cell culture medium. They were aliquoted and stored in liquid nitrogen. Before each assay an aliquot was taken up and washed twice in PBS before being suspended at the desired concentration in the assay specific buffer.
The assay buffer consisted of 2% ovalbumin and 0.2% Pluronic F-68 in assay medium.
1) Cell stocks were thawed in a 37° C. water bath.
2) Cells were washed three times in PBS.
3) Cells were counted and adjusted to 5×10^3 cells/50 μl (1×10^5 cells/ml) in assay medium. A 50 μl aliquot of cells was transferred to each well in the assay plate.
4) Stocks of the test compounds and reference compounds were diluted to a concentration of 0.2 μM in assay buffer. […] 8) A 100 μl aliquot of steadylite plus reagent was added to each well of the assay plate. 9) Each assay plate was covered with aluminum foil to protect it from light and shaken for 30 min at room temperature. 10) Each assay plate was read in a BioTek Synergy 2 Multi-Mode Reader. Calculations and Results
The data from the BioTek Synergy 2 Multi-Mode Reader were transferred to GraphPad Prism software. The software performs a non-linear regression (log(agonist) vs response (three parameters)).
A minimum of two replicates were measured for each sample. The reported EC50 values are averages of all of the measured values for each compound.

[2] = target: T1, human GLP-1 receptor; experiment: GLP-1 receptor binding: competitive binding assay (125I-GLP-1, SPA) on isolated membranes at low and high HSA
Procedure: The purpose of this example is to test the receptor binding of the GLP-1 derivatives in vitro. The receptor binding is a measure of affinity of a derivative for the human GLP-1 receptor.
Each derivative is added in a series of concentrations to isolated membranes containing the human GLP-1 receptor and displacement of the labelled ligand is monitored. The receptor binding is reported as the concentration at which half of the labelled ligand is displaced from the receptor, the IC50 value.
Buffer 1 consisted of 20 mM Na-HEPES plus 10 mM EDTA and pH was adjusted to 7.4. Buffer 2 consisted of 20 mM Na-HEPES plus 0.1 mM EDTA and pH was adjusted to 7.4. Assay buffer consisted of 50 mM HEPES supplemented with 5 mM EGTA, 5 mM MgCl2, 0.005% Tween 20 and pH was adjusted to 7.4. An 8% albumin stock consisted of HSA dissolved at 8% (w/v) in assay buffer. An 0.02% albumin stock consisted of HSA dissolved at 0.02% (w/v) in assay buffer.
The cells express the human GLP-1 receptor.
The cells were grown at 5% CO2 in DMEM, 10% fetal calf serum, 1% Pen/Strep (Penicillin/Streptomycin) and 1.0 mg/ml of the selection marker G418. To make a membrane preparation the cells were grown to approximately 80% confluence. The cells were washed twice in phosphate-buffered saline and harvested. The cells were pelleted using a brief centrifugation and the cell pellet was kept on ice. […] The homogenate was centrifuged for 15 minutes. The pellet was re-suspended (homogenised) in 10 ml buffer 2 and centrifuged. This step was repeated once more. The resulting pellet was re-suspended in buffer 2 and the protein concentration was determined. The membranes were aliquoted and stored at minus 80° C.
1. […] Assay continued with step 3.
2. For the receptor binding assay in the presence of high HSA (2%) 50 μl of the 8% albumin stock was added to each well of an assay plate. Assay continued with step 3.
4. Cell membrane aliquots were thawed and diluted to their working concentration. Fifty μl were added to each well in the assay plate.
5. WGA SPA beads were suspended in assay buffer at 20 mg/ml. The suspension was diluted to 10 mg/ml in assay buffer just prior to addition to the assay plate. Fifty μl were added to each well in the assay plate.
6. […] A 25 μl aliquot was reserved for measuring total counts/well.
7. The assay plate was incubated for 2 h at 30° C.
8. The assay plate was centrifuged for 10 min.
9. The assay plate was read in a Packard TopCount NXT instrument.
The data from the TopCount instrument were transferred to GraphPad Prism software. Individual replicates were analysed using non-linear regression. IC50 values were calculated by the software and reported in nM. The reported values are averages of all of the measured values for each compound.

[3] = high HSA (2.0% final assay concentration), read-out: High HSA IC50
[4] = low HSA (max. 0.001% final assay concentration), read-out: Low HSA IC50

pEC50 [1] | pIC50 [2, 4] | Compound | pIC50 [2, 3]
11.00 | 9.72 | CC[C@H](C)[C@H](NC(=O)[C@H](Cc1ccccc1)NC(=O)[C@H](CCC(=O)O)NC(=O)[C@H](CCCNC(=N)N)NC(=O)[C@H](C)NC(=O)[C@H](C)NC(=O)[C@H](CCC(N)=O)NC(=O)[C@H](CCC(=O)O)NC(=O)[C@H](CCC(=O)O)NC(=O)[C@H](CC(C)C)NC(=O)[C@H](Cc1ccc(O)cc1)NC(=O)[C@H](CO)NC(=O)[C@H](CO)NC(=O)[C@@H](NC(=O)[C@H](CC(=O)O)NC(=O)[C@H](CO)NC(=O)[C@@H](NC(=O)[C@H](Cc1ccccc1)NC(=O)[C@@H](NC(=O)CNC(=O)[C@H](CCC(=O)O)NC(=O)C(C)(C)NC(=O)[C@@H](N)Cc1c[nH]cn1)[C@@H](C)O)[C@@H](C)O)C(C)C)C(=O)N[C@@H](C)C(=O)N[C@@H](Cc1c[nH]c2ccccc12)C(=O)N[C@@H](CC(C)C)C(=O)N[C@H](C(=O)N[C@@H](CCCNC(=N)N)C(=O)NCC(=O)N[C@@H](CCCNC(=N)N)C(=O)N[C@@H](CCCCNC(=O)CN(CCCNC(=O)CCOCCOCCOCCOCCOCCOCCOCCOCCOCCOCCOCCOCCNC(=O)[C@@H](N)CCCCNC(=O)[C@@H](N)CCCCNC(=O)CCCCCCCCCCCCCCCCCCC(=O)O)CCCNC(=O)CCOCCOCCOCCOCCOCCOCCOCCOCCOCCOCCOCCOCCNC(=O)[C@@H](N)CCCCNC(=O)[C@@H](N)CCCCNC(=O)CCCCCCCCCCCCCCCCCCC(=O)O)C(=O)O)C(C)C [Example 8, N{Epsilon-37}-[2-[bis[3-[3-[2-[2-[2-[2-[2-[2-[2-[2-[2-[2-[2-[2-[[(2S)-2-amino-6-[[(2S)-2-amino-6-(19-carboxynonadecanoylamino)hexanoyl]amino]hexanoyl]amino]ethoxy]ethoxy]ethoxy]ethoxy]ethoxy]ethoxy]ethoxy]ethoxy]ethoxy]ethoxy]ethoxy]ethoxy]propanoylamino]propyl]amino]acetyl]-[Aib8,Glu22,Arg26,Arg34,Lys37]-GLP-1-(7-37)-peptide] | 7.57
11.20 | 10.40 | CC[C@H](C)[C@H](NC(=O)[C@H](Cc1ccccc1)NC(=O)[C@H](CCC(=O)O)NC(=O)[C@H](CCCNC(=N)N)NC(=O)[C@H](C)NC(=O)[C@H](C)NC(=O)[C@H](CCC(N)=O)NC(=O)[C@H](CCC(=O)O)NC(=O)[C@H](CCC(=O)O)NC(=O)[C@H](CC(C)C)NC(=O)[C@H](Cc1ccc(O)cc1)NC(=O)[C@H](CO)NC(=O)[C@H](CO)NC(=O)[C@@H](NC(=O)[C@H](CC(=O)O)NC(=O)[C@H](CO)NC(=O)[C@@H](NC(=O)[C@H](Cc1ccccc1)NC(=O)[C@@H](NC(=O)CNC(=O)[C@H](CCC(=O)O)NC(=O)C(C)(C)NC(=O)[C@@H](N)Cc1c[nH]cn1)[C@@H](C)O)[C@@H](C)O)C(C)C)C(=O)N[C@@H](C)C(=O)N[C@@H](Cc1c[nH]c2ccccc12)C(=O)N[C@@H](CC(C)C)C(=O)N[C@H](C(=O)N[C@@H](CCCNC(=N)N)C(=O)NCC(=O)N[C@@H](CCCNC(=N)N)C(=O)N[C@@H](CCCCNC(=O)CN(CCCNC(=O)COCCOCCNC(=O)COCCOCCNC(=O)COCCOCCNC(=O)COCCOCCNC(=O)[C@@H](N)CCCCNC(=O)[C@@H](N)CCCCNC(=O)CCCNC(=O)CCCCCCCCCCCCCCCS(=O)(=O)O)CCCNC(=O)COCCOCCNC(=O)COCCOCCNC(=O)COCCOCCNC(=O)COCCOCCNC(=O)[C@@H](N)CCCCNC(=O)[C@@H](N)CCCCNC(=O)CCCNC(=O)CCCCCCCCCCCCCCCS(=O)(=O)O)C(=O)O)C(C)C [Example 14, N{Epsilon-37}-[2-[bis[3-[[2-[2-[2-[[2-[2-[2-[[2-[2-[2-[[2-[2-[2-[[(2S)-2-amino-6-[[(2S)-2-amino-6-[4-(16-sulfohexadecanoylamino)butanoylamino]hexanoyl]amino]hexanoyl]amino]ethoxy]ethoxy]acetyl]amino]ethoxy]ethoxy]acetyl]amino]ethoxy]ethoxy]acetyl]amino]ethoxy]ethoxy]acetyl]amino]propyl]amino]acetyl]-[Aib8,Glu22,Arg26,Arg34,Lys37]-GLP-1-(7-37)-peptide] | 
 |  | CC[C@H](C)[C@H](NC(=O)[C@H](Cc1ccccc1)NC(=O)[C@H](CCC(=O)O)NC(=O)[C@H](CCCNC(=N)N)NC(=O)[C@H](C)NC(=O)[C@H](C)NC(=O)[C@H](CCC(N)=O)NC(=O)[C@H](CCC(=O)O)NC(=O)[C@H](CCC(=O)O)NC(=O)[C@H](CC(C)C)NC(=O)[C@H](Cc1ccc(O)cc1)NC(=O)[C@H](CO)NC(=O)[C@H](CO)NC(=O)[C@@H](NC(=O)[C@H](CC(=O)O)NC(=O)[C@H](CO)NC(=O)[C@@H](NC(=O)[C@H](Cc1ccccc1)NC(=O)[C@@H](NC(=O)CNC(=O)[C@H](CCC(=O)O)NC(=O)C(C)(C)NC(=O)[C@@H](N)Cc1c[nH]cn1)[C@@H](C)O)[C@@H](C)O)C(C)C)C(=O)N[C@@H](C)C(=O)N[C@@H](Cc1c[nH]c2ccccc12)C(=O)N[C@@H](CC(C)C)C(=O)N[C@H](C(=O)N[C@@H](CCCNC(=N)N)C(=O)NCC(=O)N[C@@H](CCCCNC(=O)COCCOCCNC(=O)COCCOCCNC(=O)COCCOCCNC(=O)COCCOCCNC(=O)COCCOCCNC(=O)COCCOCCNC(=O)CN(CCCNC(=O)CC[C@H](NC(=O)[C@H]1CC[C@H](CNC(=O)CCCCCCCCCCCCCCCCCCC(=O)O)CC1)C(=O)O)CCCNC(=O)CC[C@H](NC(=O)[C@H]1CC[C@H](CNC(=O)CCCCCCCCCCCCCCCCCCC(=O)O)CC1)C(=O)O)C(=O)NCC(=O)O)C(C)C [Example 30] (H-H[Aib]EGTFTSDVSSYLEEQAAREFIAWLVRGK([AEEA-AEEA-AEEA-AEEA-AEEA-AEEA-X2])G-OH; N-terminus and C-terminus assumed) | 8.39
